Data reported in US20170173114A1, “METHODS AND COMPOSITIONS FOR INDUCTION OF UCP1 EXPRESSION” (Joslin Diabetes Center, Inc., priority 2014, published 2017).
Entries after “also recorded” stand apart in the source; their conditions may differ. One block for each compound: values may come before it.

Tests used:
PGE2-EP4 receptor = target: T1, PGE2-EP4 receptor (Mus musculus, UniProt P32240); assay: PGE2-EP4 receptor inhibitor effect on FGF6-induced UCP1 mRNA in WT-1 cells; format: cell-based, murine; settings: 10 uM, with FGF6 24 hours
T1 construct: endogenous in cells; host or cells: WT-1 murine brown preadipocytes
Method: The role of the PGE2-EP4 receptor was also examined. WT-1 brown adipocytes were pretreated with AH-23848 (Sigma Aldrich), a calcium salt which is an inhibitor of the PGE2-EP4 receptor. Following AH-23848 (“AH”) treatment of the WT-1 cells at concentrations of 0 uM and 10 uM, the cells were treated with FGF6 alone in growth media (DMEM+10% FBS), AH alone, or the combination of FGF6 and AH for 24 hours. UCP1 mRNA expression for each group was then determined.

FGF6 mRNA = FGF6 mRNA expression in adipose tissue of mice treated with β3-adrenergic agonist; format: in vivo, C57BL/6 mice; settings: intraperitoneal 1 mg/kg body weight for 10 days; relative to PBS control
Method: (§1) Total RNA was isolated with QIAzol lysis reagent (Qiagen, Valencia, Calif.) and purified by RNeasy Mini columns (Qiagen) following the manufacture's instructions. cDNA was prepared from total RNA using the Advantage RT-PCR kit (BD Biosciences, Palo Alto, Calif.) according to manufacturer's instructions. Diluted cDNA was used in a PCR reaction with SYBR Green Master Mix (Applied Biosystems, Foster City, Calif.) and primers specifically designed for detection of the gene of interest. PCR reactions were run in duplicate for each sample and quantitated in the ABI Sequence Detection System (Applied Biosystems). Data were expressed as arbitrary units after normalization to levels of expression of internal controls for each sample. Sequences of primers for specific genes are each obtained from the published literature or designed using publically available gene sequence databases. Unless otherwise indicated, gene expression data described in the examples below was obtained using QPCR.
CL316,243 was administered by intraperitoneal injection to the mice at a dose of 1 mg/kg body weight for 10 days.

PTGS2 (COX2) = assay: PTGS2 mRNA / COX2 protein expression in WT-1 brown preadipocytes; format: cell-based, murine
Method: as §1
Cells were harvested in lysis buffer (50 mM HEPES, 137 mM NaCl, 1 mM MgCl2, 1 mM CaCl2, 10 mM Na2P2O7, 10 mM NaF, 2 mM EDTA, 10% glycerol, 1% Igepal CA-630, 2 mM vanadate, 10 μg/ml of leupeptin, 10 μg/ml of aprotinin, 2 mM phenylmethylsulfonyl fluoride; pH 7.4). After lysis, lysates were clarified by centrifugation at 12,000×g for 20 min at 4° C., the amount of protein in the supernatants was determined by the Bradford Protein Assay (Bio-Rad Laboratories, Hercules, Calif.). Proteins were directly solubilized in Laemmli sample buffer. Equal amounts of lysates were separated by sodium dodecyl sulfate-polyacrylamide gel electrophoresis and transferred to Immobolin-P membranes. […] Specifically bound primary antibodies were detected with peroxidase-coupled secondary antibody and enhanced chemiluminescence (ECL, Amersham Biosciences, Piscataway, N.J.).
To determine if FGF4, FGF5, FGF6, FGF10, FGF16, FGF17, FGF18 or FGF20 induced either UCP1 mRNA or PTGS2 mRNA expression, murine brown preadipocyte WT-1 cells (Tseng et al., Nat. Cell. Biol. (2005) 7(6):601-611) were grown in growth media (DMEM-high glucose+10% FBS) supplemented with FGF4, FGF5, FGF6, FGF10, FGF16, FGF17, FGF18, FGF20 or buffer (control) in combination with insulin (20 nM) and triidothyronine (T3, 1 nM) for three days. All FGFs were used at a dosage of 200 ng/mL. mRNA was isolated and UCP1 and PTGS2 gene expression levels were evaluated by quantitative reverse transcription polymerase chain reaction (Q-RT-PCR) analysis. […]
To test the role of specific prostaglandins (PGs) in activating UCP1 expression, WT-1 brown adipocytes were pretreated with PGE2, PGI2 and FGF6 for 24 hours. mRNA expression levels of UCP1, PTGS2, LDHA, PDK1 and PKM2 were then measured.

UCP1 = UCP1 mRNA expression (Q-RT-PCR) in WT-1 brown preadipocytes; format: cell-based, murine
Method: as §1
The effect of FGF6 on differentiation of WT-1 murine brown preadipocytes was also examined. WT-1 cells can be induced to undergo brown adipocyte differentiation, characterized by lipid accumulation and expression of adipogenic and brown fat markers, as described above (Klein et al. (1999) J Biol Chem 274:34795; Tseng et al. (2005) Nat Cell Biol 7:601). WT-1 cells were treated with FGF6 in growth media (DMEM+10% FBS), a vehicle control (“control” or “C” referred to in FIGS. 3A-D), or induction media (“induction” or “I” referred to in FIGS. 3A-D) as described above for seven days. Following the treatment, cells were examined for the color of the culture media in combination with oil Red O staining, expression of adipogenic markers, expression of brown fat markers, immunofluorescent staining of cells with UCP1 and DPAI, and Western blot analysis to determine the presence of UCP1 and β-tubulin. The results are described in FIGS. 3A to 3D.
UCP1 mRNA expression in brown adipocyte cells was determined at FGF6 concentrations ranging from 0 to 300 ng/ml in the absence of induction cocktail.
In order to determine the length of time necessary to induce UCP1 expression upon exposure to of cells to FGF6, an experiment was performed whereby FGF6 was administered to brown preadipocytes at a concentration of 200 ng/ml and UCP1 expression was determined. FGF21 and a control were also used in the time course experiment. FGF21, a member of the endocrine FGF ligands that has been implicated in the browning of white fat (Fisher F. M. et al., Genes Dev. 26:271-281, 2012). […] FGF6 could acutely induce a significant increase of UCP1 expression as early as 4 hours after a 200 ng/ml dose, as described in FIG. 4B. At 24 hours, the fold-induction of UCP1 mRNA by FGF6 reached 700-fold higher than the untreated cells, as described in FIG. 4B.
To assess FGF6's role in the regulation of mitochondrial activity, FGF6 was stably expressed in WT-1 brown preadipocytes and 3T3-F442A white preadipocytes. Stable cells were generated by viral infection followed by drug selection.
FGF2, FGF6 and FGF9 were used at a dosage of 50 ng/mL, 100 ng/mL, 200 ng/mL or 300 ng/mL. FGF21 was used at the dosage of 50 ng/ml and 500 ng/mL. The concentration of BMP7 was 3.3 nM. RNA was isolated and UCP1 and PPARγ expression levels were evaluated by quantitative reverse transcription polymerase chain reaction (Q-RT-PCR) analysis after 24 hours (i.e., 1 day) (FIG. 14A), 2 days (FIG. 14B), 5 days (FIG. 14C) and 7 days (FIG. 14D) of treatment. All experiments were performed triplicate and the data are presented as mean+/−SEM.
FGF2, FGF6 and FGF9 were used at a dosage of 200 ng/mL. FGF21 was used at a dosage of 500 ng/mL. The concentration of BMP7 was 3.3 nM. mRNA was isolated and UCP1 and PPARγ expression levels were evaluated by quantitative reverse transcription polymerase chain reaction (Q-RT-PCR) analysis after 24 hours (i.e., 1 day), 2 days, 5 days and 7 days of treatment (FIG. 15). […]

UCP1 and PTGS2 = UCP1 and PTGS2 mRNA in WT-1 cells undergoing adipocyte differentiation; format: cell-based, murine; settings: after induction media; 200 ng/mL FGF or 3.3 nM BMP7, 2 days
Method: In a separate experiment investigating the ability of FGF proteins to induce UCP1 expression in cells undergoing adipocyte differentiation, WT-1 preadipocyte cells were differentiated by culturing in growth media supplemented with insulin (20 nM) and triiodothyronine (T3, 1 nM) for 3 days, followed by incubation in an induction media (growth medium supplemented 20 nM insulin, 1 nM T3, 0.5 mM isobutyl-methylxanthine, 5 μM dexamethasone) for 2 days. The cell were then exposed to BMP7 (3.3 nM) or 200 ng/mL of FGF2, FGF6 or, FGF9 in growth media supplemented with insulin (20 nM) and triodothyronine (T3, 1 nM) for 2 additional days. Cells were harvested and UCP1 and PTGS2 mRNA expression levels were determined according to the quantitative RT-PCR assay described above. Experiments were performed in triplicate and the data presented as mean+/−SEM.

[1] = test system: PPARγ, aP2, FAS, PRDM16, PGC1α, CIDEA; assay: Adipogenic and brown fat marker mRNA expression in WT-1 brown preadipocytes; format: cell-based, murine
Method: as §1, with “QPCR. […]” for “QPCR.”
FGF2, FGF6 and FGF9 were used at a dosage of 50 ng/mL, 100 ng/mL, 200 ng/mL or 300 ng/mL. […] RNA was isolated and UCP1 and PPARγ expression levels were evaluated by quantitative reverse transcription polymerase chain reaction (Q-RT-PCR) analysis after 24 hours (i.e., 1 day) (FIG. 14A), 2 days (FIG. 14B), 5 days (FIG. 14C) and 7 days (FIG. 14D) of treatment. […]

UCP1 protein = UCP1 protein in WT-1 cells (immunofluorescent staining, Western blot); format: cell-based, murine; settings: WT-1, 200 ng/mL with insulin 20 nM and T3 1 nM; relative to control cells
Method: Cells were harvested in lysis buffer (50 mM HEPES, 137 mM NaCl, 1 mM MgCl2, 1 mM CaCl2, 10 mM Na2P2O7, 10 mM NaF, 2 mM EDTA, 10% glycerol, 1% Igepal CA-630, 2 mM vanadate, 10 μg/ml of leupeptin, 10 μg/ml of aprotinin, 2 mM phenylmethylsulfonyl fluoride; pH 7.4). After lysis, lysates were clarified by centrifugation at 12,000×g for 20 min at 4° C., the amount of protein in the supernatants was determined by the Bradford Protein Assay (Bio-Rad Laboratories, Hercules, Calif.). Proteins were directly solubilized in Laemmli sample buffer. Equal amounts of lysates were separated by sodium dodecyl sulfate-polyacrylamide gel electrophoresis and transferred to Immobolin-P membranes. Membranes were blocked overnight at 4° C. and incubated with the indicated antibody for 2 hours at room temperature. Specifically bound primary antibodies were detected with peroxidase-coupled secondary antibody and enhanced chemiluminescence (ECL, Amersham Biosciences, Piscataway, N.J.).
The effect of FGF6 on differentiation of WT-1 murine brown preadipocytes was also examined. WT-1 cells can be induced to undergo brown adipocyte differentiation, characterized by lipid accumulation and expression of adipogenic and brown fat markers, as described above (Klein et al. (1999) J Biol Chem 274:34795; Tseng et al. (2005) Nat Cell Biol 7:601). […]

[2] = 50, 100 or 300 ng/mL with insulin and T3, three days, FGF1 effect at 300 ng/ml
[3] = 200 ng/mL with insulin and T3, three days

T1 sequence (P32240 whole entry): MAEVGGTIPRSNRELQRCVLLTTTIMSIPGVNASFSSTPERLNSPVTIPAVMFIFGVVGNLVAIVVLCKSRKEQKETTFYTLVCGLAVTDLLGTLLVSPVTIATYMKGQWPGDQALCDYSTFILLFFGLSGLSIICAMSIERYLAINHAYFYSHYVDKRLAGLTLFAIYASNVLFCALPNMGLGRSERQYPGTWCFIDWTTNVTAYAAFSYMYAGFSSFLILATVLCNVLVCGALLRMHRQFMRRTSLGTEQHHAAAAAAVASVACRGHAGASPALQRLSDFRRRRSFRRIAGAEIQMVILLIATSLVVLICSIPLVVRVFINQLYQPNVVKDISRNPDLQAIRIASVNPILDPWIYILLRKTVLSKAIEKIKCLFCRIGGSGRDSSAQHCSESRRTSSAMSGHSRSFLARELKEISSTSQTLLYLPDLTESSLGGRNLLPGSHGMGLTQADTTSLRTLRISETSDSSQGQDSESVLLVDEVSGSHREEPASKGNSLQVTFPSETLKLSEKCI

- effect of FGF6 on UCP1 expression in the presence of inhibitor (PGE2-EP4 receptor): reduced; also recorded: suppression
Compound: O=C(O)CC/C=C\CC[C@H]1[C@H](N2CCOCC2)C(=O)C[C@H]1OCc1ccc(-c2ccccc2)cc1 [AH-23848]

Compound: C[C@H](Cc1ccc2c(c1)OC(C(=O)[O-])(C(=O)[O-])O2)NC[C@H](O)c1cccc(Cl)c1.[Na+].[Na+] [CL316,243]
- FGF6 mRNA expression levels in interscapular BAT and subcutaneous WAT (FGF6 mRNA): increased

Compound: FGF1: fibroblast growth factor 1, recombinant human, R&D Systems
- PTGS2 mRNA expression (PTGS2 (COX2); [2]): induced expression
- UCP1 mRNA expression (UCP1; [2]): induced expression

Compound: FGF2: fibroblast growth factor 2, recombinant human, R&D Systems
- PTGS2 mRNA expression in cells undergoing adipocyte differentiation (UCP1 and PTGS2): able to induce
- UCP1 mRNA expression in cells undergoing adipocyte differentiation (UCP1 and PTGS2): able to induce
- PPARγ expression level, time course ([1]; 200 ng/mL with insulin and T3, 1, 2, 5, 7 days): very low levels of PPARγ
- PPARγ expression level ([1]; 50-300 ng/mL with insulin and T3, 1, 2, 5 and 7 days): very low levels of PPARγ
- UCP1 expression level (UCP1; 50-300 ng/mL with insulin and T3, 1, 2, 5 and 7 days, dose-responsive): very high levels of UCP1
- UCP1 expression level, time course (UCP1; FGF2, FGF6, FGF9 200 ng/mL, FGF21 500 ng/mL, with insulin and T3, 1, 2, 5, 7 days): very high levels of UCP1
- UCP1 protein, immunofluorescent staining (UCP1 protein): significant levels of staining

Compound: FGF16: fibroblast growth factor 16
- expression of UCP1 (UCP1; [3]): minimal expression

Compound: FGF20: fibroblast growth factor 20
- PTGS2 mRNA expression relative to the control (PTGS2 (COX2); [3]): increased
